Laboratory results reported in PubChem BioAssay AID1963435 (Molecular Pharmacology Branch, DTP, NCI, 2024).

System: PANC-1 complex spheroid growth, percent test/control
Assay: Anticancer human tumor PANC-1 cell line growth inhibition [Asc];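 also: spheroids exposed to agents for 7 days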;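 as to viability, T/C: percent viability relative to DMSO vehicle wells taken as 100%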
Conditions: for IC50: curve of first compound; for viability, T/C: stronger effect = lower value; active = viability on the fitted dose curve at most 10% of control; inactive = the rest
Outline: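 Concentration series start at each agent's clinical Cmax, or at 10 microM when none is established, and drop in half-log steps; agents are applied alone or together to complex spheroids built with HUVEC and hMSC.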

Cn1ncnc1[C@H]1c2n[nH]c(=O)c3cc(F)cc(c23)N[C@@H]1c1ccc(F)cc1 + Cc1c(S(C)(=O)=O)c(-c2cc(F)cc(N3CCN(c4ccc(NS(=O)(=O)c5ccc(NC(CCN6CCC(C(=O)OCCCP(=O)(O)O)CC6)CSc6ccccc6)c(S(=O)(=O)C(F)(F)F)c5)cc4)CC3)c2)c(-c2ccc(Cl)cc2)n1C(C)C
> 100 nM: IC50 (second compound 0.0316 µM) | IC50 (second compound 0.1 µM) | IC50 (second compound 0.316 µM) | IC50 (second compound 1 µM) | IC50 (second compound 3.16 µM) | IC50 (second compound 10 µM)
inactive: viability, T/C (second compound 0.0316 µM, first compound 0.000316 µM) 101% | viability, T/C (second compound 0.0316 µM, first compound 0.001 µM) 88.4% | viability, T/C (second compound 0.0316 µM, first compound 0.00316 µM) 98.5% | viability, T/C (second compound 0.0316 µM, first compound 0.01 µM) 102% | viability, T/C (second compound 0.0316 µM, first compound 0.0316 µM) 110% | viability, T/C (second compound 0.0316 µM, first compound 0.1 µM) 101% | viability, T/C (second compound 0.1 µM, first compound 0.000316 µM) 96.7% | viability, T/C (second compound 0.1 µM, first compound 0.001 µM) 103% | viability, T/C (second compound 0.1 µM, first compound 0.00316 µM) 93.5% | viability, T/C (second compound 0.1 µM, first compound 0.01 µM) 108% | viability, T/C (second compound 0.1 µM, first compound 0.0316 µM) 108% | viability, T/C (second compound 0.1 µM, first compound 0.1 µM) 103% | viability, T/C (second compound 0.316 µM, first compound 0.000316 µM) 109% | viability, T/C (second compound 0.316 µM, first compound 0.001 µM) 108% | viability, T/C (second compound 0.316 µM, first compound 0.00316 µM) 106% | viability, T/C (second compound 0.316 µM, first compound 0.01 µM) 106% | viability, T/C (second compound 0.316 µM, first compound 0.0316 µM) 104% | viability, T/C (second compound 0.316 µM, first compound 0.1 µM) 110% | viability, T/C (second compound 1 µM, first compound 0.000316 µM) 105% | viability, T/C (second compound 1 µM, first compound 0.001 µM) 99.3% | viability, T/C (second compound 1 µM, first compound 0.00316 µM) 105% | viability, T/C (second compound 1 µM, first compound 0.01 µM) 106% | viability, T/C (second compound 1 µM, first compound 0.0316 µM) 103% | viability, T/C (second compound 1 µM, first compound 0.1 µM) 109% | viability, T/C (second compound 3.16 µM, first compound 0.000316 µM) 105% | viability, T/C (second compound 3.16 µM, first compound 0.001 µM) 102% | viability, T/C (second compound 3.16 µM, first compound 0.00316 µM) 107% | viability, T/C (second compound 3.16 µM, first compound 0.01 µM) 114% | viability, T/C (second compound 3.16 µM, first compound 0.0316 µM) 112% | viability, T/C (second compound 3.16 µM, first compound 0.1 µM) 93.5% | viability, T/C (second compound 10 µM, first compound 0.000316 µM) 160% | viability, T/C (second compound 10 µM, first compound 0.001 µM) 176% | viability, T/C (second compound 10 µM, first compound 0.00316 µM) 147% | viability, T/C (second compound 10 µM, first compound 0.01 µM) 167% | viability, T/C (second compound 10 µM, first compound 0.0316 µM) 169% | viability, T/C (second compound 10 µM, first compound 0.1 µM) 139%
